# Source: paper PMC5674027 (Scientific Reports, 2017)
# How the values were obtained:
# [1] = molecular target: interaction between claudin-4 and C-CPE (Homo sapiens, UniProt O14493); assay: biochemical; assay type: binding
# [2] = molecular target: recombinant human claudin-4 protein (Homo sapiens, UniProt O14493); assay: biochemical; assay type: binding
# C-CPE = assay type: binding, Clostridium perfringens
# [3] = test system: claudin-4 (HT1080/CLDN4 cells); assay type: cell-based
# [4] = test system: claudin-3 (HT1080/CLDN3 cells); assay type: cell-based
# Caco-2 cell monolayer = assay type: cell-based, human
# Experimental: Caco-2 cells were allowed to differentiate for 10 to 14 days on Transwell filters (diameter, 6.5 mm; pore size, 0.4 µm; Corning, Corning, MA, USA) before their use in TER and paracellular flux assays. Caco-2 cell monolayers had TER values of 600–800 Ω•cm^2. TER values were measured by using a Millicell-ERS epithelial volt–ohm meter (Millipore Corporation, Billerica, MA, USA). For the paracellular tracer flux assay, 100 µM dialysed FD-4 was added to the medium in the upper chamber. After 1 h of incubation, the medium was collected from the bottom chamber, and the amount of FD-4 was measured with a TriStar LB 941 microplate reader (Berthold Technologies).
# Caco-2 cells = assay type: cell-based, human; conditions: 1–100 µM, 24 h; n = 3
# Experimental: For analysis of thiostrepton-induced cytotoxicity on Caco-2 cells, a lactate dehydrogenase (LDH) release assay was performed according to the manufacturer’s instructions. After being treated with thiostrepton for 24 h, the level of LDH released into the culture medium was analysed. Treatment with 0.2% Tween-20 was used as a 100% lysis control. Absorbance was measured at a wavelength of 570 nm by using a TriStar LB 941 microplate reader (Berthold Technologies).
# claudin-1 [5] = assay type: cell-based, human; conditions: n = 3
# claudin-3 = assay type: cell-based, human; conditions: n = 3
# claudin-4 [6] = assay type: cell-based, human; conditions: n = 3
# CLDN1 = assay type: cell-based, human; conditions: n = 3
# CLDN3 = assay type: cell-based, human; conditions: n = 3
# CLDN4 = assay type: cell-based, human; conditions: n = 3
# claudin-1 [7] = assay type: cell-based, human; conditions: 100 µM, 24 h
# claudin-4 [8] = assay type: cell-based, human; conditions: 100 µM, 24 h
# occludin = assay type: cell-based, human; conditions: 100 µM, 24 h
# ZO-1 = assay type: cell-based, human; conditions: 100 µM, 24 h
# Caco-2 cell monolayers = assay type: cell-based, human; conditions: 100 µM thiostrepton, apical sulfo-NHS-SS-biotin (606.7 Da) 10 min; Caco-2 monolayer
# Experimental: Figure 5 Thiostrepton effect on paracellular tracer permeability. Caco-2 cell monolayers were treated with 100 µM thiostrepton or left untreated (control) and then apically incubated with sulfo-NHS-SS-biotin (606.7 Da; red) and counterstained with anti-ZO-1 antibody (green; TJ stain) and DAPI (blue; nuclear stain). […] Bar = 10 µm.
# Localisation of claudins-1 and -4, occludin and ZO-1 on Caco-2 cells was assessed by immunofluorescence microscopy. Caco-2 cells were seeded on Transwell filters (diameter, 12 mm; pore size, 0.4 µm; Corning). After treatment with thiostrepton (100 µM) or no treatment for 24 h, the Caco-2 cells were fixed with methanol–acetone (1:1 v/v) for 5 min and then permeabilised with 0.2% Triton X-100 in PBS for 10 min. After non-specific binding had been blocked by incubation with 1% BSA in TBS buffer (20 mM Tris-HCl, pH 7.4, 40 mM NaCl) containing 0.05% Tween-20 (T-TBS) for 1 h, the cells were incubated with anti-claudin-1, -claudin-4, -occludin and -ZO-1 antibodies in 1% BSA in T-TBS for 1 h. After incubation of the cells with fluorescent secondary antibodies for 1 h, the immunofluorescence images were observed under an immunofluorescence microscope (Keyence, Tokyo, Japan). For visualisation of biotin passing through the TJ, Caco-2 cells treated with 100 µM thiostrepton or left untreated were apically labelled with sulfo-NHS-SS-biotin (606.7 Da) for 10 min. […]
# rat jejunum [9] = assay type: in vivo; conditions: n = 4
# rat jejunum [10] = conditions: in vivo
# [11] = test system: various human cancer cell lines; conditions: cited from earlier work
# melanoma cells = conditions: cited from earlier work
# breast cancer cells = conditions: cited from earlier work
# interaction between claudin-4 and C-CPE, sequence (O14493 whole entry, looked up): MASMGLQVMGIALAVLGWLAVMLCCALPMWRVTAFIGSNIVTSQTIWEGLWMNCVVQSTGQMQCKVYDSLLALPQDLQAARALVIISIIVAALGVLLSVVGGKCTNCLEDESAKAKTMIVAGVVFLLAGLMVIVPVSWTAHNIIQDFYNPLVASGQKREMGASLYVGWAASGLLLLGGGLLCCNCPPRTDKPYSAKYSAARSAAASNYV
# recombinant human claudin-4 protein, sequence (O14493 whole entry): as the sequence (O14493 whole entry, looked up) above
smiles,measurement,setting,value
C=C(NC(=O)C(=C)NC(=O)c1csc(C2=N[C@@H]3c4csc(n4)[C@H]4NC(=O)c5csc(n5)[C@H]([C@](C)(O)[C@@H](C)O)NC(=O)[C@H]5CSC(=N5)/C(=C/C)NC(=O)[C@H]([C@@H](C)O)NC(=O)c5csc(n5)[C@]3(CC2)NC(=O)[C@H](C)NC(=O)C(=C)NC(=O)[C@H](C)NC(=O)[C@H]([C@@H](C)CC)N[C@@H]2C=Cc3c([C@H](C)O)cc(nc3[C@H]2O)C(=O)O[C@@H]4C)n1)C(N)=O [Thiostrepton],IC50,[1],1.02 µM
same,"TR-FRET (% of control), inhibition of TR-FRET signal by interaction between claudin-4 and C-CPE",[1],66.24 % of control
same,Kd,[2],6.62 µM
same,binding to C-CPE,C-CPE,did not bind to C-CPE
same,inhibition of C-CPE binding to claudin-4 on the cell membrane,[3],inhibited the binding of C-CPE to claudin-4 on the cell membrane
same,inhibition of C-CPE interaction with claudin-3,[4],"inhibited the interaction between C-CPE and claudin-3, but this effect was substantially weaker than that for claudin-4"
same,TER (%),"Caco-2 cell monolayer; 10 µM, 24 h, percentage of the TER value at 0 h",55.2%
same,"attenuation of barrier function of Caco-2 cells, comparison among hits","Caco-2 cell monolayer; among the hit compounds, Supplementary Figure 4, 10 µM, 24 h",greatest attenuation of the barrier function of Caco-2 cells
same,paracellular flux of FD-4,"Caco-2 cell monolayer; thiostrepton 1–100 µM, 24 h, Caco-2 apical to basal, 100 µM FD-4 1 h, fluorescence plate reader, n = 3",dose-dependent increase in the paracellular flux of FD-4
same,effect on TER value of Caco-2 cells,"Caco-2 cell monolayer; thiostrepton 1–100 µM, 12, 18, 24 h, then 24 h after medium change, n = 3",reversibly decreased the TER value of Caco-2 cells in a time- and dose-dependent manner
same,cytotoxicity to Caco-2 cells (LDH release),Caco-2 cells,not cytotoxic to Caco-2 cells in the concentration range of 1–100 µM
same,"claudin-1 protein, 1% Triton-X-insoluble fraction",claudin-1 [5],unchanged
same,"claudin-1 protein, 1% Triton-X-soluble fraction",claudin-1 [5],significantly decreased
same,"claudin-3 protein, 1% Triton-X-insoluble fraction",claudin-3,unchanged
same,"claudin-3 protein, 1% Triton-X-soluble fraction",claudin-3,significantly decreased
same,"claudin-4 protein, 1% Triton-X-insoluble fraction",claudin-4 [6],increased
same,"claudin-4 protein, 1% Triton-X-soluble fraction",claudin-4 [6],increased
same,claudin-1 mRNA level,CLDN1,significantly decreased
same,claudin-3 mRNA level,CLDN3,significantly decreased
same,claudin-4 mRNA level,CLDN4,increased
same,cellular localisation of claudin-1,claudin-1 [7],did not alter the cellular localisation
same,cellular localisation of claudin-4,claudin-4 [8],did not alter the cellular localisation
same,cellular localisation of occludin,occludin,did not alter the cellular localisation
same,cellular localisation of ZO-1,ZO-1,did not alter the cellular localisation
same,biotin permeation,Caco-2 cell monolayers,biotin signal was detected within the paracellular space
same,maximum plasma FD-4 concentration,rat jejunum [9],0.6 µg/mL
same,rat jejunal absorption of FD-4,rat jejunum [9],enhanced rat jejunal absorption of FD-4 in a dose-dependent manner
same,intestinal tissue toxicity (histochemical analysis),rat jejunum [10],no evidence of intestinal tissue toxicity
same,anti-tumour activity,[11],shows anti-tumour activity in various human cancer cell lines
same,effect on melanoma cells,melanoma cells,suppresses cell growth and induces apoptosis
same,effect on breast cancer cells,breast cancer cells,leads to cell-cycle arrest and cell death by down-regulating FOXM1 gene expression
